Source: US6426204B1, “Method for detecting candida infection” (priority 1991, dated 2002)

Biological target: T1, C. tropicalis D-arabinitol dehydrogenase (Candida tropicalis, UniProt P50166)
T1 construct: endogenous in cells
Assay: Specificity of the fluorogenic D-arabinitol assay (reactivity of sugars and sugar alcohols)
Format: biochemical
Conditions: for Relative Reactivity: relative to D-arabinitol
Protocol: Human serum was diluted 1:3 (v/v) with 10 mmol/L citrate (pH 4.0), placed in a boiling water bath for 10 min, and then centrifuged at 10,000×g for 10 min to remove precipitated material. The supernatant was used as the sample. Reaction mixtures (vol.=0.4 mL) contained 0.3 mL of sample, 1 mmol/L NAD^+, 4 mmol/L Mg^2+, 0.35 IU C. tropicalis D-arabinitol dehydrogenase prepared as described in Example 1, and 0.1 mol/L Tris (pH 9.5). Incubation was for 15 min at room temperature to promote the D-arabinitol dehydrogenase-catalyzed oxidation of D-arabinitol with concomitant reduction of NAD^+ to NADH. This initial incubation stage was terminated by reducing the pH of the reaction mixture to 5.8 with 0.03 mL 1.0 mol/L citrate (pH 3.6). Resazurin (12.5 μmol/L) and diaphorase (0.15 IU) were then added, and the sample was reincubated at room temperature to promote the diaphorase-catalyzed utilization of NADH (which had accumulated in the initial incubation stage) for the reduction of resazurin to resorufin. Formation of the latter was monitored fluorometrically (Excitation=560 nm, Emission=580 nm) using a Perkin-Elmer fluorescence spectrophotometer, Model #650-40, and was complete within 30 sec.
A series of sugars and sugar alcohols normally present in human serum were assessed for reactivity in the fluorometric assay. Of the compounds examined, significant reactivity relative to that observed with an equimolar concentration of D-arabinitol was found only with xylitol (3.3%). D-glucose at concentrations as great as 5.0 mmol/L was not utilized as “a” substrate.
Assays were performed as described in Example 4 except the sample contained, instead of the boiled serum supernatant, the indicated compound in PBS/10 mmol/L citrate, pH 4.0 (1:3, v/v).

[1] = compound 5 μmol/L in PBS/10 mmol/L citrate pH 4.0
[2] = compound 500 μmol/L in PBS/10 mmol/L citrate pH 4.0

T1 sequence (P50166 whole entry): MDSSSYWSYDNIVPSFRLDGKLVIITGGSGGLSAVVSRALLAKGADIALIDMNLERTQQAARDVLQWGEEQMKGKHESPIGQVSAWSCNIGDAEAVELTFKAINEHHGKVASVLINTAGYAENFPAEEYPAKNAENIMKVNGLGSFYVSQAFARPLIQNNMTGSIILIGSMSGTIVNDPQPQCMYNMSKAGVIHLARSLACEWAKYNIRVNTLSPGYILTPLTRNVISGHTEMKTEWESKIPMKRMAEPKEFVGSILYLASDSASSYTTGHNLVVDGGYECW

Structure (SMILES)	Relative Reactivity [1] [%]	further results
OC[C@@H](O)[C@H](O)CO [threitol]	0.1	
O=C[C@H](O)[C@@H](O)[C@@H](O)[C@H](O)CO [D-galactose]		Relative Reactivity [2]: 0.9%
OC[C@@H](O)[C@H](O)[C@@H](O)CO [xylitol]	3.3	
OC[C@@H](O)[C@H](O)[C@H](O)[C@@H](O)CO [galactitol]	0.6	
OC[C@@H](O)[C@@H](O)[C@H](O)[C@H](O)CO [D-mannitol]	0	
OC[C@@H](O)[C@@H](O)[C@H](O)[C@@H](O)CO [D-sorbitol]	0.1	
O=C[C@@H](O)[C@@H](O)[C@H](O)[C@H](O)CO [D-mannose]		Relative Reactivity [2]: 0.3%
OC[C@@H](O)[C@@H](O)[C@@H](O)CO [ribitol]	0	
OC[C@@H](O)C(O)[C@H](O)CO [D-arabinitol]	100	
O=C(CO)[C@@H](O)[C@H](O)[C@H](O)CO [D-fructose]		Relative Reactivity [2]: 0%
OC[C@H](O)C(O)[C@@H](O)CO [L-arabinitol]	0	
O=C[C@H](O)[C@@H](O)[C@H](O)[C@H](O)CO [D-glucose]		Relative Reactivity (compound 5000 μmol/L in PBS/10 mmol/L citrate pH 4.0): 0%; Utilization as substrate in the fluorometric assay (concentrations as great as 5.0 mmol/L): not utilized
OC[C@@H](O)[C@@H](O)CO [erythritol]	0	
